Measured values published in PubChem BioAssay AID2060606 (Molecular Pharmacology Branch, DTP, NCI, 2025).
pIC50: −log10 of the molar value.

Test system: 922993-354-T-J3-PDC complex spheroids, viability, % test/control
Assay: Anticancer human tumor 922993-354-T-J3-PDC patient-derived endometrial carcinoma cell line growth inhibition [CLK]
Details: for pIC50: curve of first compound; for viability, T/C: stronger effect = lower value
Procedure, shortened: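 Patient-derived tumor cells grown as complex spheroids with HUVEC endothelial cells and mesenchymal stem cells, treated with drug combinations. Concentrations descend in half-log steps from near clinical Cmax, or from 10 microM if Cmax unknown.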

[1] = second compound 0.0316 µM, first compound 0.0316 µM
[2] = second compound 0.0316 µM, first compound 0.1 µM
[3] = second compound 0.0316 µM, first compound 0.316 µM
[4] = second compound 0.0316 µM, first compound 1 µM
[5] = second compound 0.0316 µM, first compound 3.16 µM
[6] = second compound 0.0316 µM, first compound 10 µM
[7] = second compound 0.1 µM, first compound 0.0316 µM
[8] = second compound 0.1 µM, first compound 0.1 µM
[9] = second compound 0.1 µM, first compound 0.316 µM
[10] = second compound 0.1 µM, first compound 1 µM
[11] = second compound 0.1 µM, first compound 3.16 µM
[12] = second compound 0.1 µM, first compound 10 µM
[13] = second compound 0.316 µM, first compound 0.0316 µM
[14] = second compound 0.316 µM, first compound 0.1 µM
[15] = second compound 0.316 µM, first compound 0.316 µM
[16] = second compound 0.316 µM, first compound 1 µM
[17] = second compound 0.316 µM, first compound 3.16 µM
[18] = second compound 0.316 µM, first compound 10 µM
[19] = second compound 1 µM, first compound 0.0316 µM
[20] = second compound 1 µM, first compound 0.1 µM
[21] = second compound 1 µM, first compound 0.316 µM
[22] = second compound 1 µM, first compound 1 µM
[23] = second compound 1 µM, first compound 3.16 µM
[24] = second compound 1 µM, first compound 10 µM
[25] = second compound 3.16 µM, first compound 0.0316 µM
[26] = second compound 3.16 µM, first compound 0.1 µM
[27] = second compound 3.16 µM, first compound 0.316 µM
[28] = second compound 3.16 µM, first compound 1 µM
[29] = second compound 3.16 µM, first compound 3.16 µM
[30] = second compound 3.16 µM, first compound 10 µM
[31] = second compound 10 µM, first compound 0.0316 µM
[32] = second compound 10 µM, first compound 0.1 µM
[33] = second compound 10 µM, first compound 0.316 µM
[34] = second compound 10 µM, first compound 1 µM
[35] = second compound 10 µM, first compound 3.16 µM
[36] = second compound 10 µM, first compound 10 µM
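Also: spheroids exposed to the agents for 7 days before readout.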

## CC(=O)O[C@H]1C(=O)[C@@]2(C)[C@H]([C@H](OC(=O)c3ccccc3)[C@]3(O)C[C@H](OC(=O)[C@H](O)[C@@H](NC(=O)c4ccccc4)c4ccccc4)C(C)=C1C3(C)C)[C@]1(OC(C)=O)CO[C@@H]1C[C@@H]2O + CN1CCN(c2cc(C(=O)Nc3cc4cc(-c5cnn(C)c5)ccc4cn3)ccn2)CC1
Second compound 0.0316 µM
  pIC50: 5.54
Second compound 0.1 µM
  pIC50: 5.63
Second compound 0.316 µM
  pIC50: > 7.50
Second compound 1 µM
  pIC50: > 7.50
Second compound 3.16 µM
  pIC50: > 7.50
Second compound 10 µM
  pIC50: > 7.50
[1]
  viability, T/C: 110%
[2]
  viability, T/C: 126%
[3]
  viability, T/C: 91.4%
[4]
  viability, T/C: 95%
[5]
  viability, T/C: 43.5%
[6]
  viability, T/C: 36.3%
[7]
  viability, T/C: 94.8%
[8]
  viability, T/C: 100%
[9]
  viability, T/C: 98.3%
[10]
  viability, T/C: 63.1%
[11]
  viability, T/C: 50.1%
[12]
  viability, T/C: 30.3%
[13]
  viability, T/C: 26%
[14]
  viability, T/C: 24.9%
[15]
  viability, T/C: 29.8%
[16]
  viability, T/C: 19.9%
[17]
  viability, T/C: 16.1%
[18]
  viability, T/C: 14.4%
[19]
  viability, T/C: 0.1%
[20]
  viability, T/C: 0.47%
[21]
  viability, T/C: 0.12%
[22]
  viability, T/C: 0.07%
[23]
  viability, T/C: 0.06%
[24]
  viability, T/C: 0.07%
[25]
  viability, T/C: 0.1%
[26]
  viability, T/C: 0.79%
[27]
  viability, T/C: 0.18%
[28]
  viability, T/C: 0.67%
[29]
  viability, T/C: 0.76%
[30]
  viability, T/C: 0.11%
[31]
  viability, T/C: 0.12%
[32]
  viability, T/C: 0.14%
[33]
  viability, T/C: 0.2%
[34]
  viability, T/C: 0.16%
[35]
  viability, T/C: 1.02%
[36]
  viability, T/C: 2.94%

## CCc1c2c(nc3ccc(O)cc13)-c1cc3c(c(=O)n1C2)COC(=O)[C@]3(O)CC + CN1CCN(c2cc(C(=O)Nc3cc4cc(-c5cnn(C)c5)ccc4cn3)ccn2)CC1
Second compound 0.0316 µM
  pIC50: 7.78
Second compound 0.1 µM
  pIC50: 7.82
Second compound 0.316 µM
  pIC50: > 8.50
Second compound 1 µM
  pIC50: > 8.50
Second compound 3.16 µM
  pIC50: > 8.50
Second compound 10 µM
  pIC50: > 8.50
Second compound 0.0316 µM, first compound 0.00316 µM
  viability, T/C: 96.4%
Second compound 0.0316 µM, first compound 0.01 µM
  viability, T/C: 75.1%
[1]
  viability, T/C: 16.3%
[2]
  viability, T/C: 16.1%
[3]
  viability, T/C: 16.8%
[4]
  viability, T/C: 24.9%
Second compound 0.1 µM, first compound 0.00316 µM
  viability, T/C: 84.3%
Second compound 0.1 µM, first compound 0.01 µM
  viability, T/C: 66.9%
[7]
  viability, T/C: 14.1%
[8]
  viability, T/C: 18.8%
[9]
  viability, T/C: 16.2%
[10]
  viability, T/C: 32.3%
Second compound 0.316 µM, first compound 0.00316 µM
  viability, T/C: 27.2%
Second compound 0.316 µM, first compound 0.01 µM
  viability, T/C: 19.2%
[13]
  viability, T/C: 9.9%
[14]
  viability, T/C: 9.85%
[15]
  viability, T/C: 18.8%
[16]
  viability, T/C: 15.8%
Second compound 1 µM, first compound 0.00316 µM
  viability, T/C: 0.1%
Second compound 1 µM, first compound 0.01 µM
  viability, T/C: 0.13%
[19]
  viability, T/C: 1.37%
[20]
  viability, T/C: 0.07%
[21]
  viability, T/C: 0.87%
[22]
  viability, T/C: 0.33%
Second compound 3.16 µM, first compound 0.00316 µM
  viability, T/C: 0.08%
Second compound 3.16 µM, first compound 0.01 µM
  viability, T/C: 0.17%
[25]
  viability, T/C: 0.99%
[26]
  viability, T/C: 1.34%
[27]
  viability, T/C: 1%
[28]
  viability, T/C: 2.82%
Second compound 10 µM, first compound 0.00316 µM
  viability, T/C: 0.12%
Second compound 10 µM, first compound 0.01 µM
  viability, T/C: 0.14%
[31]
  viability, T/C: 0.83%
[32]
  viability, T/C: 0.18%
[33]
  viability, T/C: 0.59%
[34]
  viability, T/C: 2.79%

## O=c1[nH]cc(F)c(=O)[nH]1 + CN1CCN(c2cc(C(=O)Nc3cc4cc(-c5cnn(C)c5)ccc4cn3)ccn2)CC1
Second compound 0.0316 µM
  pIC50: 5.10
Second compound 0.1 µM
  pIC50: 5.36
Second compound 0.316 µM
  pIC50: > 7.50
Second compound 1 µM
  pIC50: > 7.50
Second compound 3.16 µM
  pIC50: > 7.50
Second compound 10 µM
  pIC50: > 7.50
[1]
  viability, T/C: 104%
[2]
  viability, T/C: 99.5%
[3]
  viability, T/C: 95.2%
[4]
  viability, T/C: 114%
[5]
  viability, T/C: 65.6%
[6]
  viability, T/C: 46.1%
[7]
  viability, T/C: 102%
[8]
  viability, T/C: 87.2%
[9]
  viability, T/C: 94.1%
[10]
  viability, T/C: 80.5%
[11]
  viability, T/C: 54.2%
[12]
  viability, T/C: 38.9%
[13]
  viability, T/C: 34.3%
[14]
  viability, T/C: 34.3%
[15]
  viability, T/C: 33.3%
[16]
  viability, T/C: 31.3%
[17]
  viability, T/C: 38%
[18]
  viability, T/C: 24.6%
[19]
  viability, T/C: 0.11%
[20]
  viability, T/C: 0.38%
[21]
  viability, T/C: 0.11%
[22]
  viability, T/C: 0.78%
[23]
  viability, T/C: 1.96%
[24]
  viability, T/C: 1.27%
[25]
  viability, T/C: 0.09%
[26]
  viability, T/C: 0.09%
[27]
  viability, T/C: 1.19%
[28]
  viability, T/C: 0.76%
[29]
  viability, T/C: 0.73%
[30]
  viability, T/C: 2.29%
[31]
  viability, T/C: 0.09%
[32]
  viability, T/C: 0.11%
[33]
  viability, T/C: 0.93%
[34]
  viability, T/C: 0.13%
[35]
  viability, T/C: 2.73%
[36]
  viability, T/C: 2.68%
